Results published in publication PMC8668240, “GABAA Receptor Subunit Composition Drives Its Sensitivity to the Insecticide Fipronil” (Frontiers in Neuroscience, 2021).

Legend:
Assay in all cases: two-electrode voltage clamp, Xenopus oocytes
Format in all cases: cell-based
α6β3 GABAAR (binary) [1] = molecular target: T1, α6β3 GABAAR (binary) (Mus musculus, UniProt P16305+P63080); details: read-out: IC50 (μM, ± SEM)
T1 construct: gene Gabra6; full-length cDNAs, injected 1:1 in Xenopus oocyte nucleus; heteropentamer without third subunit
T1 sequence (P16305 20-453): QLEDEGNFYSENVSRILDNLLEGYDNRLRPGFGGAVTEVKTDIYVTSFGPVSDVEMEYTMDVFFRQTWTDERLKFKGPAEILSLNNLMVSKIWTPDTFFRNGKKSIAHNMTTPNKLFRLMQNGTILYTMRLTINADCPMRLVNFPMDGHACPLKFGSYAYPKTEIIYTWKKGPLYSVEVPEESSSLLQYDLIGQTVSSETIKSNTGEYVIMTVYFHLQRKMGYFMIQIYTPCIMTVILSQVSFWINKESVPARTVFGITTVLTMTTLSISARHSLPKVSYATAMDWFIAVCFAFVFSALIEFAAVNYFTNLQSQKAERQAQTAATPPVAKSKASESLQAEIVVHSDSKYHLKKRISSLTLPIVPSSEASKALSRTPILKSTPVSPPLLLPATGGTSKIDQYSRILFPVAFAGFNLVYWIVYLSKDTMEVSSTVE
T1 sequence (P63080 26-473): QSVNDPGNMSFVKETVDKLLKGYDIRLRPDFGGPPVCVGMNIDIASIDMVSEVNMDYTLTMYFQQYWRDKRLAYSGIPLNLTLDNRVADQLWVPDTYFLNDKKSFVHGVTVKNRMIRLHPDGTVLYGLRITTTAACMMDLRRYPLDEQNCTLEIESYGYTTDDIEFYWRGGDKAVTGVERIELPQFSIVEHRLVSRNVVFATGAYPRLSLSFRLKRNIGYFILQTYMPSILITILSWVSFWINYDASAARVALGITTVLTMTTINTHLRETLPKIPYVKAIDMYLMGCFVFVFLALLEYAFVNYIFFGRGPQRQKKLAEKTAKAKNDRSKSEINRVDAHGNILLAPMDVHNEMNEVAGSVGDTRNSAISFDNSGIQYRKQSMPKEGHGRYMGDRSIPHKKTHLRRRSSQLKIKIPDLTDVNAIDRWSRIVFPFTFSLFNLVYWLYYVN
Description: two-electrode voltage clamp, Xenopus oocytes on α6β3 GABAAR (binary)

[2] = molecular target: T2, α6β3δ GABAAR (extrasynaptic) (Mus musculus, UniProt P16305+P22933+P63080); details: read-out: IC50 (μM, ± SEM)
T2 construct: gene Gabra6; full-length cDNAs, injected 1:1:5 in Xenopus oocyte nucleus; heteropentamer
T2 sequence (P63080 26-473): as above
T2 sequence (P22933 25-449): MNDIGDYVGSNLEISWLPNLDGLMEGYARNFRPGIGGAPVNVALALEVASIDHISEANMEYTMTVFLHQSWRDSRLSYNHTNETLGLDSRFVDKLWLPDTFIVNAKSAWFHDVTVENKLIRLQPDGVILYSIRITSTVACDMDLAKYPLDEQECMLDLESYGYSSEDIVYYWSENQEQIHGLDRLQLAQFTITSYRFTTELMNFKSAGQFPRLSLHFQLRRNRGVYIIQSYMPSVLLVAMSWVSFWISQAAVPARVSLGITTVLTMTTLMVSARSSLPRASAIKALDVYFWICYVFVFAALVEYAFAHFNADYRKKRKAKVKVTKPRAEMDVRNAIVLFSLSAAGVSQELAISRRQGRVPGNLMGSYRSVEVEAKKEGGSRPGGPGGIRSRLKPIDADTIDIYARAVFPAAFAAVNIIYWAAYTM
T2 sequence (P16305 20-453): as the sequence (P16305 20-453) above
Description: two-electrode voltage clamp, Xenopus oocytes on α6β3δ GABAAR (extrasynaptic)

β3 homopentamer = molecular target: T3, β3 homopentamer (Mus musculus, UniProt P63080); details: current through spontaneously open β3; 1, 10 and 100 μM FPN; no GABA; positive modulator
T3 construct: gene Gabrb3; full-length cDNA in pGW1 (= pRK5), expressed in Xenopus oocytes; homopentamer
T3 sequence (P63080 26-473): as the sequence (P63080 26-473) above

α6β3 GABAAR (binary) [3] = molecular target: T1, α6β3 GABAAR (binary)

Compound | IC50 (α6β3 GABAAR (binary) [1]) | IC50 [2] | two-electrode voltage clamp, Xenopus oocytes (β3 homopentamer) | EC50 (α6β3 GABAAR (binary) [3])
N#Cc1nn(-c2c(Cl)cc(C(F)(F)F)cc2Cl)c(N)c1[S+]([O-])C(F)(F)F (stereo not shown) [fipronil] | 2.4 ± 0.4 µM | 20.7 ± 2.6 µM | The current density increases as a function of FPN concentrations | 
NCCCC(=O)O [GABA] |  |  |  | 430 ± 10 nM
